The values that follow come from DBAASP.

Values after ≈ are worked out from the molar mass of the structure shown.

What all share (assay): ≥ marks a high value that may be exact or a test limit, other limits are often not marked, values filed in µg/mL are converted to µM
The subject of experiment [1] is Candida albicans ATCC 90028.
In experiment [2] the test system is Enterobacter cloacae HNTCC 53001.
Experiment [3] relates to Enterococcus faecalis ATCC 29212.
The subject of experiment [4] is Escherichia coli ATCC 25922.
Experiment [5] relates to Klebsiella pneumoniae KK3 9904.
Experiment [6] has as its system Pseudomonas aeruginosa ATCC 27853.
Experiment [7] concerns Staphylococcus aureus NCTC 8325.
For experiment [8], the system named is Staphylococcus aureus T7/20.
Experiment [9] deals with Staphylococcus epidermidis RP62A.
For experiment [10], the system named is Bacillus licheniformis X39.
For experiment [11], the system named is Psychrobacter faecalis X29.
Experiment [12] has as its system Rhodococcus rhodochrous X15.
Experiment [13] concerns Staphylococcus aureus ATCC 2592.
In experiment [14] the test system is Staphylococcus carnosus KHS.
Experiment [15] concerns Candida albicans ATCC 2002.
For experiment [16], the system named is Escherichia coli CIB 84492.
The subject of experiment [17] is Pseudomonas aeruginosa CMCCB 10104.
For experiment [18], the system named is Staphylococcus aureus ATCC 25923.
The subject of experiment [19] is Staphylococcus aureus CIB 85462.
Experiment [20] has as its system Bacillus subtilis ATCC 6633.
For experiment [21], the system named is Candida albicans ATCC 36232.
Experiment [22] concerns Corynebacterium diphtheriae ATCC 8024.
Experiment [23] deals with Escherichia coli ATCC 2592.
Experiment [24] concerns Micrococcus luteus ATCC 9341.
Experiment [25] deals with Pseudomonas aeruginosa ATCC 9027.
Experiment [26] relates to Shigella flexneri ATCC 203.
Experiment [27] concerns Staphylococcus aureus ATCC 6538.
The subject of the next experiment is Staphylococcus aureus.
Experiment [28] has as its system Staphylococcus epidermidis ATCC 12228.

Consider `CSCC[C@H](NC(=O)[C@@H](NC(=O)[C@@H](NC(=O)[C@H](CC(C)C)NC(=O)[C@@H]1CCCN1C(=O)[C@H](CC(C)C)NC(=O)[C@@H](N)Cc1ccccc1)C(C)C)[C@@H](C)O)C(=O)N[C@@H](CC(C)C)C(=O)N[C@@H](CC(C)C)C(=O)NCC(=O)N[C@@H](CCCCN)C(=O)N[C@@H](CC(C)C)C(=O)N[C@@H](Cc1ccccc1)C(N)=O` [FLPLVTMLLGKLF], for which the MIC in experiment [1] is not below 160 µM; in [2], not below 40 µM; in experiment [3] it was 40 µM (≈ 59.6 µg/mL); in experiment [4], more than 160 µM; in experiment [5], not below 80 µM; in experiment [6] it was 160 µM (≈ 239 µg/mL). Besides, the results for the MIC in [7], in experiment [8] and in experiment [9] were 5 µM (≈ 7.45 µg/mL), 10 µM (≈ 14.9 µg/mL) and 10 µM (≈ 14.9 µg/mL), respectively.

For the compound `CC[C@H](C)[C@H](NC(=O)[C@H](CO)NC(=O)[C@H](CC(C)C)NC(=O)[C@@H](N)Cc1ccccc1)C(=O)N[C@H](C(=O)N[C@@H](C)C(=O)N[C@@H](CCCCN)C(=O)N[C@H](C(=O)N[C@@H](CC(C)C)C(=O)NCC(=O)N[C@@H](CO)C(=O)N[C@@H](CC(C)C)C(=O)N[C@@H](Cc1ccccc1)C(N)=O)C(C)C)[C@@H](C)CC` [FLSIIAKVLGSLF], the MIC was not below 160 µM in experiment [1]; not below 160 µM in experiment [2]; 20 µM (≈ 28.1 µg/mL) in experiment [3]; more than 160 µM in experiment [4]; not below 160 µM in [5]; more than 160 µM in experiment [6]. Further, the minimal inhibitory concentration (MIC) came to 5 µM (≈ 7.03 µg/mL) in experiment [7], 10 µM (≈ 14.1 µg/mL) in experiment [8] and 5 µM (≈ 7.03 µg/mL) in experiment [9].

As to `CC[C@H](C)[C@H](NC(=O)CN)C(=O)N[C@@H](Cc1ccccc1)C(=O)N[C@@H](CO)C(=O)N[C@@H](CC(C)C)C(=O)N[C@@H](Cc1ccccc1)C(=O)N[C@@H](CCCCN)C(=O)N[C@@H](C)C(=O)NCC(=O)N[C@@H](C)C(=O)N[C@@H](CCCCN)C(=O)N[C@@H](Cc1ccccc1)C(=O)N[C@@H](Cc1ccccc1)C(=O)NCC(=O)N[C@@H](CCCCN)C(=O)N[C@@H](Cc1cnc[nH]1)C(=O)N[C@@H](CC(C)C)C(=O)N[C@@H](CC(C)C)C(=O)N[C@@H](CCCCN)C(=O)N[C@@H](CCC(N)=O)C(=O)N[C@@H](C)C(=O)NCC(=O)N[C@@H](CCCCN)C(=O)N[C@@H](C)C(=O)NCC(=O)N[C@@H](C)C(=O)N[C@@H](CCC(=O)O)C(=O)N[C@@H](Cc1cnc[nH]1)C(=O)N[C@@H](CC(C)C)C(=O)N[C@@H](C)C(=O)N[C@H]1CSSC[C@@H](C(=O)O)NC(=O)[C@H](CCC(N)=O)NC(=O)[C@H](CC(N)=O)NC(=O)[C@H]([C@@H](C)O)NC(=O)[C@H](C)NC(=O)[C@H](CCCCN)NC1=O` [GIFSLFKAGAKFFGKHLLKQAGKAGAEHLACKATNQC], the minimum inhibitory concentration (MIC) turned out to be 3.2 µM (≈ 12.4 µg/mL) in [10]; 1.6 µM (≈ 6.22 µg/mL) in experiment [11]; 0.8 µM (≈ 3.11 µg/mL) in experiment [12]; 1.6 µM (≈ 6.22 µg/mL) in [13]; 3.2 µM (≈ 12.4 µg/mL) in experiment [14].

Regarding `CC[C@H](C)[C@H](NC(=O)[C@H](CC(C)C)NC(=O)[C@H](CCCCN)NC(=O)[C@H](C)NC(=O)[C@H](C)NC(=O)CNC(=O)[C@H](CCCCN)NC(=O)[C@@H](NC(=O)[C@H](CC(C)C)NC(=O)[C@@H](NC(=O)[C@H](Cc1ccccc1)NC(=O)[C@H](CC(C)C)NC(=O)CN)[C@@H](C)O)[C@@H](C)CC)C(=O)NCC(=O)N[C@@H](CCCCN)C(=O)N[C@H](C(=O)N[C@H](C(=O)N[C@@H](C)C(=O)N[C@@H](CCCCN)C(=O)N[C@@H](CCC(=O)O)C(=O)N[C@@H](C)C(=O)NCC(=O)N[C@@H](CCCCN)C(=O)N[C@H](C(=O)NCC(=O)N[C@@H](CC(C)C)C(=O)N[C@@H](CCC(=O)O)C(=O)N[C@@H](CC(C)C)C(=O)N[C@@H](CCSC)C(=O)N[C@@H](C)C(=O)N[C@H]1CSSC[C@@H](C(=O)O)NC(=O)[C@H](CCC(N)=O)NC(=O)[C@H](CC(N)=O)NC(=O)[C@H]([C@@H](C)O)NC(=O)[C@H]([C@@H](C)CC)NC(=O)[C@H](CCCCN)NC1=O)[C@@H](C)O)C(C)C)[C@@H](C)O` [GLFTLIKGAAKLIGKTVAKEAGKTGLELMACKITNQC], the minimal inhibitory concentration (MIC) in experiment [15] was 1.33 µM (≈ 5.1 µg/mL); in [1], not below 100 µM; in experiment [4], 2.67 µM (≈ 10.2 µg/mL); in experiment [16], not below 33.5 µM; in experiment [17], 2.67 µM (≈ 10.2 µg/mL); in [18], 1.33 µM (≈ 5.1 µg/mL). Besides, the minimum inhibitory concentration (MIC) in [19] was 8.37 µM (≈ 32 µg/mL); in experiment [7], not below 50 µM.

In the case of `CC(C)C[C@H](NC(=O)[C@H](CS)NC(=O)[C@H](Cc1cnc[nH]1)NC(=O)[C@H](C)NC(=O)[C@H](C)NC(=O)[C@H](CS)NC(=O)[C@H](C)NC(=O)[C@H](C)NC(=O)[C@H](CC(=O)O)NC(=O)[C@@H](N)CC(N)=O)C(=O)N[C@@H](Cc1ccccc1)C(=O)N[C@@H](CCCN=C(N)N)C(=O)NCC(=O)N[C@@H](CCCN=C(N)N)C(=O)N[C@@H](CO)C(=O)NCC(=O)NCC(N)=O` [NDAACAAHCLFRGRSGG], the MIC was not below 58.6 µM in experiment [20]; not below 58.6 µM in experiment [21]; not below 58.6 µM in experiment [22]; not below 58.6 µM in [23]; not below 58.6 µM in experiment [24]; more than 58.6 µM in experiment [25]. Also, the MIC in experiment [26] is not below 58.6 µM; in experiment [27] it was more than 58.6 µM; in the experiment on Staphylococcus aureus, more than 58.6 µM; in experiment [28], more than 58.6 µM.

For `CC(C)[C@H](NC(=O)[C@H](CS)NC(=O)[C@@H](NC(=O)[C@H](CCCN=C(N)N)NC(=O)[C@H](CCCCN)NC(=O)CNC(=O)[C@H](CC(N)=O)NC(=O)[C@H](CS)NC(=O)[C@@H](N)Cc1ccc(O)cc1)C(C)C)C(=O)N[C@@H](CS)C(N)=O` [YCNGKRVCVC], the minimal inhibitory concentration (MIC) in experiment [20] was not below 87.4 µM; in experiment [21] it was not below 87.4 µM; in experiment [22], not below 87.4 µM; in [23], not below 87.4 µM; in experiment [24], not below 87.4 µM; in experiment [25], more than 87.4 µM. In addition, the minimum inhibitory concentration (MIC) was not below 87.4 µM in [26], more than 87.4 µM in experiment [27], more than 87.4 µM with Staphylococcus aureus and more than 87.4 µM in experiment [28].

As usually defined, the MIC is the smallest concentration in the dilution series that meets the test's criterion for growth inhibition.
